In data set [1] the target is human Arginine Vasopressin Receptor 1a (AVPR1a) (Homo sapiens (Human), UniProt P37288). Description: Vasopressin V1A receptor antagonist assay (AVP-evoked calcium, FLIPR, CHO-AVPR1a cells). The data set is classed as cell-based. Put shortly:
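Antagonism measured as reduction of AVP (EC80, set each assay day) calcium response on FLIPR in dye-loaded CHO-AVPR1a cells. Compounds, 3 μM top in 10-point 1:3 dilution, in duplicate, added 15 min before agonist at 37° C.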

Data set [2] has as its target human Oxytocin Receptor (hOTR) (Homo sapiens (Human), UniProt P30559). Description: Oxytocin receptor antagonist assay (oxytocin-evoked calcium, FLIPR, CHEM-1-hOTR cells). The conditions noted are these: read-out: OT IC50. The data set is classed as cell-based. As for the experimental part: This assay was performed in CHEM-1 cells expressing the human Oxytocin Receptor (hOTR) to determine the inhibitory effect of the compounds of the invention on the human Oxytocin receptor. Oxytocin evokes an increase in intracellular calcium in CHEM-1-hOTR cells which is measured in a fluorescence assay on the FLIPR^TETRA using calcium sensitive dyes. Test compounds were assessed for their ability to affect the magnitude of the response to oxytocin, with antagonists showing a concentration-dependent reduction in the oxytocin-mediated fluorescence.
CHEM-1-hOTR ready was used to assay frozen cells (Eurofins #HTS090RTA) which are supplied with a proprietary Media Component.
Cells were thawed in a 37° C. water bath and diluted with the supplied Media Component to a final volume of 10 ml. The cell suspension was centrifuged at 1000 rpm for 3 min at room temperature and the supernatant was discarded. The cell pellet was resuspended in Media Component (10.5 ml) and the cells (25 μL) were dispensed into a poly-D-lysine coated black, clear bottomed, 384-well plate. The plates were incubated overnight at 37° C., 5% CO2.
At the start of each assay day the potency of oxytocin was assessed and an EC80 concentration was determined for subsequent compound profiling. Assays were performed using a two-step addition protocol on the FLIPR^TETRA; first addition of 5 μl of control or test compound at 10× final in assay buffer with 15 min incubation at 37° C., 5% CO2 followed by 10 μl of oxytocin at 6× final concentration in assay buffer. Changes in fluorescence were monitored for 3 min after both additions on the FLIPR^TETRA using 470-495 nm excitation and 515-575 nm emission wavelengths. The assay buffer consisted of HBSS (+Ca/+Mg) supplemented with 20 mM HEPES, and for the preparation of the oxytocin agonist only, 0.1% w/v bovine serum albumin. The assay was initiated by the removal of growth media from the cells and replaced with 45 μl of Calcium-6 dye (Molecular Devices) prepared at 1× in assay buffer. Cells were loaded with dye for 60-90 min at 37° C., 5% CO2 before initiation of the FLIPR^TETRA protocol. […] For compound profiling, test compounds were first serially diluted in DMSO (10-point curve, 1:3 dilutions) then diluted 33.3-fold in assay buffer prior to addition to the dye loaded cells on the FLIPR^TETRA. At the end of the incubation period 10 μl of oxytocin in assay buffer containing 0.1% BSA was added at the previously determined EC80 concentration.
In-plate controls for the assay include a L-368,899 concentration-response curve as the reference OTR antagonist and an oxytocin concentration-response curve to confirm the reproducibility of the EC80 used for the compound challenge.

The test system of a further data set is MDR1 (P-glycoprotein). Description: MDR1-MDCK effective efflux assay (Transwell, 10 μM, 1 hour), MDR1-MDCK cells. The conditions noted are these: dog. The class given is in vitro ADME. As for the experimental part: (§1) The MDR1-MDCK effective efflux assay was performed as described in the BioFocus Standard Operating Procedure, ADME-SOP-56. Both wild-type (WT) and MDR1-MDCK cells (Solvo Biotechnology) were seeded onto 24-well Transwell plates at 2.35×10^5 cells per well and used in confluent monolayers after a 3 day culture at 37° C. under 5% CO2. For both cell types, test and control compounds (propranolol, vinblastine) were added (10 μM, 0.1% DMSO final, n=2) to donor compartments of the Transwell plate assembly in assay buffer (Hanks balanced salt solution supplemented with 25 mM HEPES, adjusted to pH 7.4) for both apical to basolateral (A>B) and basolateral to apical (B>A) measurements. Incubations were performed at 37° C., with samples removed from both donor and acceptor chambers at T=0 and 1 hour and compound analysed by mass spectrometry (LC-MS/MS) including an analytical internal standard.
(§2) Where V is the volume of each Transwell compartment (apical 125 basolateral 600 and concentrations are the relative MS responses for compound (normalized to internal standard) in the donor chamber before incubation and acceptor chamber at the end of the incubation. Area=area of cells exposed for drug transfer (0.33 cm2).
(§3) Efflux ratios (Papp B>A/Papp A>B) were calculated for each compound from the mean Papp values in each direction for both wild-type and MDR1-MDCK cells.
(§4) In order to confirm the involvement of MDR1 in any efflux seen, an “effective efflux ratio” (EER) was calculated by comparing compound efflux ratios (ER) in the two cell types, i.e. EER=ER(MDR1−MDCK)/ER(wild-type MDCK)
(§5) This ratio illustrates the effect of the over-expressed MDR1 normalised for the background movement of compound through the wild-type cells.
(§6) Lucifer Yellow (LY) was added to the apical buffer in all wells to assess viability of the cell layer. Compound recovery from the wells was determined from MS responses (normalized to internal standard) in donor and acceptor chambers at the end of incubation compared to response in the donor chamber pre-incubation.

Data set [3] can be described thus: MDR1-MDCK effective efflux assay (Transwell, 10 μM, 1 hour), wild-type MDCK cells. The class given is in vitro ADME. The conditions noted are these: dog, MDCK. As for the experimental part: as §1, §2, §3, §4, §5, §6
The next data set has as its system MDR1-MDCK cells. Description: MDR1-MDCK effective efflux assay (Transwell, 10 μM, 1 hour), MDR1-MDCK cells. The data set is classed as in vitro ADME. As to conditions: MDCK-MDR1. As for the experimental part: as §1, §2, §3, §4, §5, §6
Data set [4] has as its system wild-type (WT) MDCK cells. Description: MDR1-MDCK effective efflux assay (Transwell, 10 μM, 1 hour), wild-type MDCK cells. The data set is classed as in vitro ADME. The conditions noted are these: MDCK. How it is done: as §1, §2, §3, §4, §5, §6
[5] abbreviates: MDCK-MDR1, pH 7.4, MDR1-MDCK cells, apical to basolateral (A>B), 10 μM, 1 hour, read-out: Papp AB MDR1.
Setting [6] is: pH 7.4, wild-type MDCK cells, apical to basolateral (A>B), 10 μM, 1 hour, read-out: Papp AB WT.
Setting [7] is: MDCK-MDR1, pH 7.4, Papp AB MDR1.

Like-named read-outs stand apart in the source and are kept apart here.

human Arginine Vasopressin Receptor 1a (AVPR1a), sequence (P37288 whole entry): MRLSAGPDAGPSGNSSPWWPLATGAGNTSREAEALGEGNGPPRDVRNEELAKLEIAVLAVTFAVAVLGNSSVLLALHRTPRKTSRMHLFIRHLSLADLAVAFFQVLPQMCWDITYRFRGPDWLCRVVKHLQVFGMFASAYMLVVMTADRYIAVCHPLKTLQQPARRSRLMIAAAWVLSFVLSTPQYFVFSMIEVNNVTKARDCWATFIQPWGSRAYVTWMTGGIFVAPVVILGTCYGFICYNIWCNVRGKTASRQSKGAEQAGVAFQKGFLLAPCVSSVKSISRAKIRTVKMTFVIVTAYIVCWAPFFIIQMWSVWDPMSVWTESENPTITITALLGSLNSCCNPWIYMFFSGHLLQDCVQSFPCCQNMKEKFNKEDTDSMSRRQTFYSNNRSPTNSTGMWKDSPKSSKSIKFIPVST
human Oxytocin Receptor (hOTR), sequence (P30559 whole entry): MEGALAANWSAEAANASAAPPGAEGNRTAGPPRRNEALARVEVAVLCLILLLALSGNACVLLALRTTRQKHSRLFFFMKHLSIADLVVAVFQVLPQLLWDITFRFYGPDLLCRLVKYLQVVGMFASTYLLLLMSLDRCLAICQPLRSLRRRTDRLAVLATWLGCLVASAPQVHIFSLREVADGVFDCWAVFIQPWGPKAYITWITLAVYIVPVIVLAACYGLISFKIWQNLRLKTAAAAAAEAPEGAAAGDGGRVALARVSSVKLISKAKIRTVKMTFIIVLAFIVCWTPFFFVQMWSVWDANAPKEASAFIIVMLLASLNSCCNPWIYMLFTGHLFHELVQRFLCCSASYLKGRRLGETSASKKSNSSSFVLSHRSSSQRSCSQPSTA

With `CC(C)OC(=O)N1Cc2cc(Cl)ccc2-n2c(nnc2C2CC3(C2)CN(c2ccc(F)cn2)C3)C1` [compound 111], the IC50 was less than 0.1 µM in data set [1] (read-out: V1a IC50) and 0.1 to 0.5 µM in data set [2]. Besides, the Papp A→B at 1 h, 10 μM (in the data set with MDR1 (P-glycoprotein) (setting [5]); in data set [3] (setting [6])) was more than 20 ×10⁻⁶ cm/s in each case.
Turning to `COC(=O)N1Cc2cc(Cl)ccc2-n2c(nnc2C2CC3(C2)CN(c2cccc(C)n2)C3)C1` [compound 115], the IC50 in data set [1] (read-out: V1a IC50) was less than 0.1 µM. The Papp A→B at 1 h, 10 μM in the data set with MDR1 (P-glycoprotein) (setting [7]) is 10 to 20 ×10⁻⁶ cm/s; in data set [3] (pH 7.4, Papp AB WT) it was more than 20 ×10⁻⁶ cm/s. Further, in the data set on MDR1-MDCK cells, the “MDR1 EER” value was “+”. In addition, the “MDR1 ER” value with MDR1-MDCK cells is “+”. Moreover, the “WT ER” value in data set [4] is reported as “+++”.
With `O=C(C1CC1)N1CC2(CC(c3nnc4n3-c3ccc(Cl)cc3CN(C(=O)C(F)(F)F)C4)C2)C1` [compound 137], the 50% inhibitory concentration (IC50) in data set [1] (read-out: V1a IC50) is less than 0.1 µM. This compound displayed a Papp A→B at 1 h, 10 μM in the data set with MDR1 (P-glycoprotein) (setting [7]) of less than 7 ×10⁻⁶ cm/s. Further, in the data set with MDR1-MDCK cells, the “MDR1 EER” value is reported as “+” and the “MDR1 ER” value is recorded as “+”. In addition, the Papp A→B at 1 h, 10 μM in data set [3] (pH 7.4, Papp AB WT) is less than 7 ×10⁻⁶ cm/s. For the same compound, in data set [4], the “WT ER” value was “+”.
For the compound `CC(C)OC(=O)N1Cc2cc(Cl)ccc2-n2c(nnc2C2CC3(C2)CN(C(=O)C2(F)CC2)C3)C1` [compound 147], the IC50 in data set [1] (read-out: V1a IC50) is less than 0.1 µM. For the same compound, the Papp A→B at 1 h, 10 μM is less than 7 ×10⁻⁶ cm/s in the data set on MDR1 (P-glycoprotein) (setting [7]) and less than 7 ×10⁻⁶ cm/s in data set [3] (pH 7.4, Papp AB WT). Further, in the data set on MDR1-MDCK cells, the “MDR1 EER” value is recorded as “+”. For the same compound, in the data set on MDR1-MDCK cells, the “MDR1 ER” value is “+”. In addition, in data set [4], the “WT ER” value is given as “+”.
For the compound `CC(C)OC(=O)N1Cc2cc(Cl)ccc2-n2c(nnc2C2CC3(C2)CN(c2ncncc2F)C3)C1` [compound 185], the IC50 in data set [1] (read-out: V1a IC50) is less than 0.1 µM; in data set [2] it was 0.5 to 1 µM. Also, the Papp A→B at 1 h, 10 μM (in the data set on MDR1 (P-glycoprotein) (setting [5]); in data set [3] (setting [6])) was more than 20 ×10⁻⁶ cm/s throughout.
Take `CC1c2nnc(C3CC4(C3)CN(c3ccc(F)cn3)C4)n2-c2ccc(Cl)cc2CN1C(=O)OC1CCC1` (centres unmarked) [compound 195]: in the data set on MDR1 (P-glycoprotein) (setting [7]), the Papp A→B at 1 h, 10 μM is more than 20 ×10⁻⁶ cm/s. Moreover, in the data set on MDR1-MDCK cells, the “MDR1 EER” value was “++++” and the “MDR1 ER” value is on record as “+++”. This compound also showed a Papp A→B at 1 h, 10 μM in data set [3] (pH 7.4, Papp AB WT) of 10 to 20 ×10⁻⁶ cm/s. In data set [4], the “WT ER” value is listed as “+++”.
`O=C1OCC2c3nnc(C4CC5(C4)CN(c4ccc(F)cn4)C5)n3-c3ccc(Cl)cc3CN12` (centres unmarked) [compound 200, 7-chloro-3-(2-(5-fluoropyridin-2-yl)-2-azaspiro[3.3]heptan-6-yl)-13,13a-dihydro-9H,11H-benzo[e]oxazolo[3,4-a][1,2,4]triazolo[3,4-c][1,4]diazepin-11-one]: the IC50 in data set [1] lay within 0.1 to 0.5 µM. In addition, the Papp A→B at 1 h, 10 μM with MDR1 (P-glycoprotein) (setting [5]) was less than 7 ×10⁻⁶ cm/s; in data set [3] (setting [6]), more than 20 ×10⁻⁶ cm/s.
Turning to `CC1c2nnc(C3CC4(C3)CN(c3ncccn3)C4)n2-c2ccc(Cl)cc2CN1C(=O)OC(CF)CF` (centres unmarked) [compound 202], the Papp A→B at 1 h, 10 μM was less than 7 ×10⁻⁶ cm/s in the data set on MDR1 (P-glycoprotein) (setting [7]) and more than 20 ×10⁻⁶ cm/s in data set [3] (pH 7.4, Papp AB WT). Besides, in the data set on MDR1-MDCK cells, the “MDR1 EER” value is recorded as “+”. In addition, in the data set with MDR1-MDCK cells, the “MDR1 ER” value is “+”. In data set [4], the “WT ER” value is on record as “++++”.
As to `CC1c2nnc(C3CC4(C3)CN(c3ccc(F)cn3)C4)n2-c2ccc(Cl)cc2CN1C(=O)OC(CF)CF` (centres unmarked) [compound 203], the Papp A→B at 1 h, 10 μM with MDR1 (P-glycoprotein) (setting [7]) was 10 to 20 ×10⁻⁶ cm/s; in data set [3] (pH 7.4, Papp AB WT), more than 20 ×10⁻⁶ cm/s. Besides, the “MDR1 EER” value with MDR1-MDCK cells is “+++”. In addition, the “MDR1 ER” value in the data set on MDR1-MDCK cells was “++”. In data set [4], the “WT ER” value was “+++”.

For orientation: IC50 means the midpoint of a concentration-inhibition curve.
